Data published in paper PMC9718554, “Discovery of a fragment hit compound targeting D-Ala:D-Ala ligase of bacterial peptidoglycan biosynthesis” (Journal of Enzyme Inhibition and Medicinal Chemistry, 2022).
Where two headings read alike, the source gives them in different places.

Target: T1, E. coli DdlB enzyme (D-alanine:D-alanine ligase) (Escherichia coli, UniProt P07862)
T1 construct: made in house; host or cells: E. coli
Assay: biochemical
Conditions: for remaining activity at 2000 µM: tested concentration 2.0 mM; for remaining activity at 2500 µM: tested concentration 2.5 mM; for remaining activity at 2200 µM: tested concentration 2.2 mM; for remaining activity at 2100 µM: tested concentration 2.1 mM; for remaining activity at 2400 µM: tested concentration 2.4 mM; for remaining activity at 2300 µM: tested concentration 2.3 mM; for remaining activity at 1800 µM: tested concentration 1.8 mM; for remaining activity at 1700 µM: tested concentration 1.7 mM; for remaining activity at 2800 µM: tested concentration 2.8 mM; for remaining activity at 1900 µM: tested concentration 1.9 mM

[1] = residual activity, read-out: DdlB RA
[2] = residual activity of DdlB, fragment library screening, read-out: DdlB RA
[3] = fragment library screening, read-out: DdlB RA

## CCOc1c(Nc2ccc(OC)cc2)c(=O)c1=O [Compound G317-0026]
read-out: DdlB RA
  remaining activity at 2000 µM: 93%

## Cn1nccc1-c1cccc(B(O)O)c1 [Compound 8020-6599]
read-out: DdlB RA
  remaining activity at 2500 µM: 93%

## O=C(O)CC1C(=O)NCCN1C1Cc2ccccc2C1 (stereo not drawn) [Compound D236-0050]
[1]
  remaining activity at 2000 µM: 103%

## Nc1nnc(C2CC2)s1 [FLD126]
[2]
  remaining activity at 2500 µM: 80%

## CC1CN(S(=O)(=O)c2ccc(F)cc2)CC(C)O1 (stereo not drawn) [Compound Y030-1235]
[1]
  remaining activity at 2000 µM: 93%

## CCc1c(C)[nH]c(=O)c(C(=O)O)c1C(N)=O [Compound 8020-6319]
[1]
  remaining activity at 2200 µM: 72%

## O=c1[nH]c(O)ncc1S(=O)(=O)N1CCCC1 [Compound D668-0107]
[1]
  remaining activity at 2000 µM: 94%

## O=C1COc2cc(O)ccc21 [FLD029]
[2]
  remaining activity at 2500 µM: 100%

## Cc1ccc(Cl)cc1S(=O)(=O)N1CCOCC1 [Compound 8010-0539]
[1]
  remaining activity at 2000 µM: 98%

## O=C(NC1CCCC1)[C@H]1CCCC[C@H]1C(=O)O [Compound Y203-9770]
read-out: DdlB RA
  remaining activity at 2100 µM: 91%

## Cc1ccc(C)c(C(=O)N(C)CC2CCOC2)c1 (stereo not drawn) [Compound S213-1736]
read-out: DdlB RA
  remaining activity at 2400 µM: 99%

## Cc1nc(C(=O)O)c(C)n1C1CCN(C)CC1 [FF20-0714]
[1]
  remaining activity at 2100 µM: 100%

## Cc1nc2ccc(Br)cn2c1C(=O)O [Compound 8019-4469]
[1]
  remaining activity at 2000 µM: 94%

## O=S(=O)(O)CCOc1ccccc1 [Compound 0165-0458]
read-out: DdlB RA
  remaining activity at 2500 µM: 100%

## CNC(C)C(O)c1ccccc1 (stereo not drawn) [FLD102]
[2]
  remaining activity at 2500 µM: 97%

## O=c1c(N2CCCC2)c(N2CCCC2)c1=O [Compound K906-4052]
read-out: DdlB RA
  remaining activity at 2300 µM: 98%

## COc1cccc(C(=O)Nc2ccccc2C(=O)O)c1 [Compound Y030-1668]
[1]
  remaining activity at 1800 µM: 97%

## COc1cc(O)cc(OC)c1OC [FLD027]
[2]
  remaining activity at 2500 µM: 98%

## Cc1nc2ccccc2nc1O [FLD171]
[2]
  remaining activity at 2500 µM: 95%

## CC(=O)Nc1ccc(S(N)(=O)=O)cc1 [Compound 0405-0094]
read-out: DdlB RA
  remaining activity at 2300 µM: 87%

## Nn1cnn(Cc2ccc([N+](=O)[O-])cc2)c1=O [Compound 8012-9514]
read-out: DdlB RA
  remaining activity at 2100 µM: 106%

## O=c1[nH]c2ncc(Br)cc2o1 [Compound Y042-2897]
read-out: DdlB RA
  remaining activity at 2300 µM: 92%

## Cc1cc(C2CCCN2C(=O)c2ccc(F)c(F)c2)on1 (stereo not drawn) [Compound Z632-2808]
[1]
  remaining activity at 1700 µM: 98%

## O=C(c1ccccc1)N1CCC(c2nnc(C3CC3)[nH]2)CC1 [Compound T630-2594]
read-out: DdlB RA
  remaining activity at 1700 µM: 91%

## N#Cc1ccccc1Br [FLD114]
[2]
  remaining activity at 2500 µM: 99%

## Cc1cc(Nc2c(O)c(=O)c2=O)no1 [Compound G317-0569]
Tested concentration 2.6 mM, read-out: DdlB RA
  remaining activity at 2600 µM: 93%

## OCc1ccncc1 [FLD197]
[2]
  remaining activity at 2500 µM: 100%

## C#CC1(O)C(C)CN(C)CC1C (stereo not drawn) [Compound 8013-1764]
Residual activity of DdlB, fragment library screening, tested concentration 3.6 mM, read-out: DdlB RA
  remaining activity at 3600 µM: 97%

## NC(=O)c1ccccc1N [FLD043]
[2]
  remaining activity at 2500 µM: 98%

## N#Cc1cccc2cccc(S(=O)(=O)O)c12 [Compound 1326-0564]
read-out: DdlB RA
  remaining activity at 2200 µM: 96%

## O=C(NC1CC(=O)N(c2cccc(F)c2)C1)C1CC1 (stereo not drawn) [Compound G856-7454]
read-out: DdlB RA
  remaining activity at 2300 µM: 91%

## Cc1cccc(-c2ccnc3c(C(=O)O)cnn23)c1 [Compound Y502-0116]
[3]
  remaining activity at 2000 µM: 6%

## Cc1ccc(-c2noc(O)n2)cc1 [Compound C066-5428]
read-out: DdlB RA
  remaining activity at 2800 µM: 95%

## O=C(O)c1cccc2c1C(=O)N(Cc1ccncc1)C2 [Compound 8017-6147]
[3]
  remaining activity at 1900 µM: 90%

## Cc1cc(C)c2ccc(C(=O)O)cc2n1 [Compound 8019-7912]
read-out: DdlB RA
  remaining activity at 2500 µM: 88%

## Cc1n[nH]c([C@@H]2CC(F)(F)CN2C2CCCCCC2)n1 [SB35-1022]
[1]
  remaining activity at 1900 µM: 97%

## O=C(O)c1ccccc1C(=O)NCc1ccccc1 [Compound K786-0839]
[3]
  remaining activity at 2000 µM: 98%

## CC(C)CNC(=O)Cc1c[nH]c2ncccc12 [Compound M508-0619]
[1]
  remaining activity at 2200 µM: 94%

## c1ccc2c(c1)N(CN1CCCC1)CC21OCCO1 [Compound 5482-0050]
read-out: DdlB RA
  remaining activity at 2300 µM: 94%

## NC(=O)c1cnccn1 [FLD007]
[2]
  remaining activity at 2500 µM: 100%

## Cc1cccc(Cc2n[nH]c(CC(=O)NC3CCCC3)n2)c1 [Compound P496-1655]
read-out: DdlB RA
  remaining activity at 1700 µM: 97%

## O=C(O)Cc1nc(-c2cncc(Br)c2)n[nH]1 [Compound 8020-5455]
[1]
  remaining activity at 1800 µM: 94%

## O=C1C=C(O)CO1 [Compound 8020-5738]
Tested concentration 5.0 mM, read-out: DdlB RA
  remaining activity at 5000 µM: 98%

## Cc1noc(C)c1C(=O)NCC1Cn2cccc2CN1C (stereo not drawn) [Compound S590-0019]
[1]
  remaining activity at 2100 µM: 45%

## O=C(NCc1ccncc1)[C@H]1CC=CC[C@H]1C(=O)O [Compound Y204-2545]
[3]
  remaining activity at 1900 µM: 75%

## O=C(Cn1cc2c(n1)CCCC2)Nc1ccc(F)cc1 [Compound C881-0402]
[1]
  remaining activity at 2000 µM: 79%

## CC(=O)NCC1CNCC12CCCCC2 (stereo not drawn) [Compound S855-0002]
read-out: DdlB RA
  remaining activity at 2200 µM: 85%

## Nc1cccc(CC(=O)O)c1 [FLD131]
[2]
  remaining activity at 2500 µM: 97%

## O=S(=O)(c1cccnc1)N1CCC2(CCC2O)CC1 (stereo not drawn) [Compound S971-1046]
[1]
  remaining activity at 1800 µM: 89%

## Cc1nnc(-c2ccc(C(=O)O)c(N)c2)o1 [Compound 8020-0732]
[1]
  remaining activity at 2300 µM: 114%

## COCCn1c(CCC(=O)O)ccc1-c1ccccc1 [Compound D135-0001]
read-out: DdlB RA
  remaining activity at 1800 µM: 90%

## Cc1nc(O)[nH]c(=O)c1S(=O)(=O)NC(C)(C)C [Compound D668-0207]
[1]
  remaining activity at 1900 µM: 85%

## Cc1cc(N)n(-c2ccc(S(=O)(=O)O)cc2)n1 [Compound 2991-0739]
read-out: DdlB RA
  remaining activity at 2000 µM: 97%

## NS(=O)(=O)c1ccc(Cl)s1 [FLD067]
[2]
  remaining activity at 2500 µM: 100%

## Cc1cc(=O)n(-c2ccccc2)n1C [FLD081]
[2]
  remaining activity at 2500 µM: 100%

## Cc1nc2ccccc2c(O)c1S(=O)(=O)O [Compound L150-1119]
read-out: DdlB RA
  remaining activity at 2100 µM: 90%

## O=C(O)Cc1ccc(F)c(C(F)(F)F)c1 [FLD148]
[2]
  remaining activity at 2500 µM: 100%

## O=C(O)c1cnn2c(-c3ccccc3)ccnc12 [Compound 9, 7-Phenylpyrazolo[1,5-a]pyrimidine-3-carboxylic acid]
At 5 mM, read-out: DdlB inhibition, RA (Residual Activity)
  remaining activity at 5000 µM: 90%

## c1ccc2c(c1)CCNC2 [FLD166]
[2]
  remaining activity at 2500 µM: 77%

## O=c1[nH]c2ccc(O)cc2o1 [Compound 8020-7157]
Tested concentration 3.3 mM, read-out: DdlB RA
  remaining activity at 3300 µM: 96%

## O=C(O)C(c1ccccc1)c1ccccc1 [FLD066]
[2]
  remaining activity at 2500 µM: 100%

## O=c1c(-c2ccc(Cl)cc2)c(N2CCOCC2)c1=O [Compound E786-0171]
read-out: DdlB RA
  remaining activity at 1800 µM: 141%

## Cc1nn(Cc2c(C(=O)O)noc2C)c(C)c1C [FF01-5078]
read-out: DdlB RA
  remaining activity at 2000 µM: 81%

## Cn1nc(C(=O)O)c2c1CCOC2 [Compound P207-8979]
Residual activity of DdlB, fragment library screening, tested concentration 3.0 mM, read-out: DdlB RA
  remaining activity at 3000 µM: 88%

## Cc1nn(-c2ccccn2)c2c1C(=O)C(C#N)CC2 (stereo not drawn) [Compound 8015-7286]
read-out: DdlB RA
  remaining activity at 2200 µM: 83%

## CCOC(=O)c1[nH]cnc1C [FLD106]
[2]
  remaining activity at 2500 µM: 100%

## Cc1cc(C(=O)O)nn1C(F)F [Compound Y503-2420]
read-out: DdlB RA
  remaining activity at 2800 µM: 85%

## CCCN(C)C(=O)Cc1c[nH]c2ncccc12 [Compound M508-0627]
[1]
  remaining activity at 2200 µM: 86%

## Nc1c(C(=O)O)cnc2ccc(F)cc12 [Compound 8020-2302]
read-out: DdlB RA
  remaining activity at 2400 µM: 93%

## COc1nc(Cl)nc(OC)n1 [FLD049]
[2]
  remaining activity at 2500 µM: 95%

## Cc1nnc(C2CCN(C(=O)c3ccco3)CC2)[nH]1 [Compound T630-1922]
[1]
  remaining activity at 1900 µM: 58%

## COc1ccc2c(c1)C(=O)CCC2 [FLD008]
[2]
  remaining activity at 2500 µM: 100%
